Experimental data published in patent EP4818168A1, “FUSED RING COMPOUND, PHARMACEUTICAL COMPOSITION THEREOF AND USE THEREOF” (priority 2023, dated 2025).
Where two headings read alike, the source gives them in different places.

Columns and labels:
H82 cells = assay: cells; assay type: cell-based; settings: Homo sapiens
Outline: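 After 6 days' compound treatment at 37 °C (final DMSO 0.1%, RPMI1640/10% FBS), viable H82 cells were quantified by ATP-dependent CellTiter-Glo luminescence. Remaining activity was calculated against DMSO and medium wells, and a sigmoidal fit gave IC50.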

AURKA = biological target: T1, AURKA (Homo sapiens, UniProt O14965); assay type: cell-based; settings: Jurkat cells, 24 h
T1 construct: endogenous in cells; host or cells: Jurkat cells
T1 sequence (O14965 1-403): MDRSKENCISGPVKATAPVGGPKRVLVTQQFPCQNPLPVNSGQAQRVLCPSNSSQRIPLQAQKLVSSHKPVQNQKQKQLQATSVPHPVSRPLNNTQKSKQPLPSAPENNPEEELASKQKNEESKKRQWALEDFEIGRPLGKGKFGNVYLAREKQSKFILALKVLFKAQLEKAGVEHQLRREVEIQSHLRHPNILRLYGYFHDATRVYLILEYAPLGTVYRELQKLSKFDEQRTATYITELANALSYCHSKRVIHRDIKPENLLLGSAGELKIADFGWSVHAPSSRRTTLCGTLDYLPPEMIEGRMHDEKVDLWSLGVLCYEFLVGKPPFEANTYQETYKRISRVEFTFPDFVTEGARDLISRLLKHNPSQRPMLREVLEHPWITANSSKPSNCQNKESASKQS
Outline: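 AURKA degradation read by western blot: band signal, fluorescent or chemiluminescent, curve-fitted to derive DC50. Cells were Jurkat, plated at 1×10^6 cells/500 µL with compound, then lysed and blotted onto nitrocellulose, primary antibody overnight at 4°C.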

Mouse PK study = assay type: in vivo; settings: male CD1 mice; for C0/Cmax / half-life / AUC(0-t) at 24 h / clearance / Vd / Tmax: plasma; for half-life / AUC(0-t) at 24 h / clearance / Vd / Tmax: mouse; for AUC(0-t) at 24 h: read-out: AUC0-24; for clearance: read-out: CLp; for Vd: read-out: Vss
Description: Male CD1 mice (5-8 weeks old) were administered intravenously (IV) at a dose of 1 mg/kg by tail vein bolus or orally (PO) at doses of 10 mg/kg and 40 mg/kg by gavage. The compound was formulated in a vehicle of 10% DMSO + 10% Solutol HS15 + 80% saline. All animals were given free access to food and water during the experiment. […] Blood samples were centrifuged at 3500 g for 5 min, and the resulting plasma was analyzed by an LC-MS/MS method. The PK parameters were calculated using WinNonlin software (Phoenix®, version 8.3) through non-compartmental analysis methods.

HCC1806 cells = assay: CTG assay of compound inhibition on cell viability (HCC1806 cells); assay type: cell-based; settings: Homo sapiens, HCC1806, 144 h, read-out: IC50 in HCC1806 Cells
Outline: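 HCC1806 cells in RPMI1640 + 10% FBS were exposed to serially diluted compound (0.1% DMSO final) for 6 days at 37°C, 5% CO2. Viability was read as CellTiter-Glo luminescence (ATP) and normalised to DMSO and medium controls. IC50 came from a nonlinear-regression dose-survival curve.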

O=C1CCN(c2ccc(N3CCC4(CC3)CC(N3CCN(C56CC(Nc7ncc8c(n7)-c7ccc(Cl)cc7C(c7c(F)cccc7F)=NC8)(C5)C6)C(=O)C3)CO4)nc2)C(=O)N1 (stereo not drawn) [Compound A321]
IC50 (H82 cells; NCI-H82, read-out: IC50 in H82 Cells): < 1000 nM
Percentage of AURKA Degradation Induced by 100 nM Compound in Jurkat Cells (AURKA; Table 2): +++ (Degradation > 70%)
Percentage of AURKA Degradation Induced by 1 µM Compound in Jurkat Cells (AURKA; Table 2): +++ (Degradation > 70%)
C0/Cmax (Mouse PK study; IV 1 mg/kg): 1307 ng/mL
F (Mouse PK study; PO 10 mg/kg): 157%
C0/Cmax (Mouse PK study; PO 10 mg/kg): 4007 ng/mL
F (Mouse PK study; PO 40 mg/kg): 130%
C0/Cmax (Mouse PK study; PO 40 mg/kg): 13233 ng/mL
half-life (Mouse PK study; IV 1 mg/kg): 113 min
AUC(0-t) at 24 h (Mouse PK study; IV 1 mg/kg): 2630 ng·h/mL
clearance (Mouse PK study; IV 1 mg/kg): 6.16 mL/min/kg
Vd (Mouse PK study; IV 1 mg/kg): 0.97 L/kg
Tmax (Mouse PK study; PO 10 mg/kg): 3.33 h
half-life (Mouse PK study; PO 10 mg/kg): 128 min
AUC(0-t) at 24 h (Mouse PK study; PO 10 mg/kg): 41400 ng·h/mL
Tmax (Mouse PK study; PO 40 mg/kg): 3.33 h
half-life (Mouse PK study; PO 40 mg/kg): 118 min
AUC(0-t) at 24 h (Mouse PK study; PO 40 mg/kg): 137000 ng·h/mL

COc1cc(Nc2ncc3c(n2)-c2ccc(Cl)cc2C(c2c(F)cccc2OC)=NC3)ccc1C(=O)NCCN1CCN(c2ncc(N3CCC(=O)NC3=O)s2)CC1 [Compound A24]
Percentage of AURKA Degradation Induced by 100 nM Compound in Jurkat Cells (AURKA; Table 1): +++ (Degradation > 70%)
Percentage of AURKA Degradation Induced by 1 µM Compound in Jurkat Cells (AURKA; Table 1): ++ (30% < Degradation ≤ 70%)
IC50 (HCC1806 cells): < 1000 nM

COc1cc(Nc2ncc3c(n2)-c2ccc(Cl)cc2C(c2c(F)cccc2OC)=NC3)ccc1C(=O)N1CC(N(C)CC#Cc2cccc3c2CN(C2CCC(=O)NC2=O)C3=O)C1 (stereo not drawn) [Compound A34]
Percentage of AURKA Degradation Induced by 100 nM Compound in Jurkat Cells (AURKA; Table 1): ++ (30% < Degradation ≤ 70%)
Percentage of AURKA Degradation Induced by 1 µM Compound in Jurkat Cells (AURKA; Table 1): ++ (30% < Degradation ≤ 70%)
IC50 (HCC1806 cells): < 1000 nM

COc1cccc(F)c1C1=NCc2cnc(Nc3ccc(C(=O)NC4CC5(CCN(c6ccc(N7CCC(=O)NC7=O)cc6)CC5)C4)cc3)nc2-c2ccc(Cl)cc21 [Compound A46]
Percentage of AURKA Degradation Induced by 100 nM Compound in Jurkat Cells (AURKA; Table 1): +++ (Degradation > 70%)
Percentage of AURKA Degradation Induced by 1 µM Compound in Jurkat Cells (AURKA; Table 1): +++ (Degradation > 70%)
IC50 (HCC1806 cells): < 1000 nM

COc1cc(Nc2ncc3c(n2)-c2ccc(Cl)cc2C(c2c(F)cccc2OC)=NC3)ccc1C(=O)N1CC2(CN(Cc3cccc4c3C(=O)N(C3CCC(=O)NC3=O)C4=O)C2)C1 (stereo not drawn) [Compound A33]
Percentage of AURKA Degradation Induced by 100 nM Compound in Jurkat Cells (AURKA; Table 1): ++ (30% < Degradation ≤ 70%)
Percentage of AURKA Degradation Induced by 1 µM Compound in Jurkat Cells (AURKA; Table 1): ++ (30% < Degradation ≤ 70%)
IC50 (HCC1806 cells): < 1000 nM

O=C1CCN(c2cccc(C#C[C@H]3C[C@H](NC(=O)c4ccc(Nc5ncc6c(n5)-c5ccc(Cl)cc5C(c5c(F)cccc5F)=NC6)cc4)C3)c2)C(=O)N1 [Compound A52]
Percentage of AURKA Degradation Induced by 100 nM Compound in Jurkat Cells (AURKA; Table 1): ++ (30% < Degradation ≤ 70%)
Percentage of AURKA Degradation Induced by 1 µM Compound in Jurkat Cells (AURKA; Table 1): ++ (30% < Degradation ≤ 70%)
IC50 (HCC1806 cells): < 1000 nM

O=C1CCN(c2ccc(N3CC4(CCN(C(=O)c5ccc(Nc6ncc7c(n6)-c6ccc(Cl)cc6C(c6c(F)cccc6F)=NC7)cc5)C4)C3)cc2)C(=O)N1 [Compound A43]
Percentage of AURKA Degradation Induced by 100 nM Compound in Jurkat Cells (AURKA; Table 1): + (Degradation ≤ 30%)
Percentage of AURKA Degradation Induced by 1 µM Compound in Jurkat Cells (AURKA; Table 1): + (Degradation ≤ 30%)
IC50 (HCC1806 cells): > 10000 nM

O=C1CCN(c2ccc(N3CCO[C@H](C(=O)N4CCN(c5ccc(Nc6ncc7c(n6)-c6ccc(Cl)cc6C(c6c(F)cccc6F)=NC7)cc5)CC4)C3)nc2)C(=O)N1 [Compound A307]
IC50 (H82 cells; NCI-H82, H82 cells, 4000 cells/well, CellTiter-Glo, read-out: IC50 in H82 Cells): < 1000 nM
Percentage of AURKA Degradation Induced by 100 nM Compound in Jurkat Cells (AURKA; Table 2): +++ (Degradation > 70%)
Percentage of AURKA Degradation Induced by 1 µM Compound in Jurkat Cells (AURKA; Table 2): +++ (Degradation > 70%)
C0/Cmax (Mouse PK study; IV 1 mg/kg): 1527 ng/mL
F (Mouse PK study; PO 10 mg/kg): 79.7%
C0/Cmax (Mouse PK study; PO 10 mg/kg): 2460 ng/mL
F (Mouse PK study; PO 40 mg/kg): 80.6%
C0/Cmax (Mouse PK study; PO 40 mg/kg): 7283 ng/mL
half-life (Mouse PK study; IV 1 mg/kg): 137 min
AUC(0-t) at 24 h (Mouse PK study; IV 1 mg/kg): 2450 ng·h/mL
clearance (Mouse PK study; IV 1 mg/kg): 6.33 mL/min/kg
Vd (Mouse PK study; IV 1 mg/kg): 1.04 L/kg
Tmax (Mouse PK study; PO 10 mg/kg): 2 h
half-life (Mouse PK study; PO 10 mg/kg): 145 min
AUC(0-t) at 24 h (Mouse PK study; PO 10 mg/kg): 19500 ng·h/mL
Tmax (Mouse PK study; PO 40 mg/kg): 3.33 h
half-life (Mouse PK study; PO 40 mg/kg): 142 min
AUC(0-t) at 24 h (Mouse PK study; PO 40 mg/kg): 78900 ng·h/mL
